8 compounds from ChEMBL document CHEMBL5614376, “Discovery of MT-1207: A Novel, Potent Multitarget Inhibitor as a Promising Clinical Candidate for the Treatment of Hypertension” (J Med Chem, 2024) can be followed below.

One may read the inhibition as the drop in the measured response relative to a control, in per cent.

Each structure is given as a SMILES string. Active and inactive are the calls of the source. No cut-off for these calls is given here.

The subject of assay [1] is Rattus norvegicus. Put plainly: Effect on postural hypotension in Sprague-Dawley rat assessed as change in systolic blood pressure at 22 ug/kg, po treated for >30 mins followed by induction of postural hypotension measured 40 secs after postural change (reference value: 128 +/- 11 mmHg). The class given is functional. To be noted: dose 22 µg/kg, time > 30.67 min, 0.5112 h.

Assay [2] relates to Rattus norvegicus. Put plainly: Effect on postural hypotension in Sprague-Dawley rat assessed as change in systolic blood pressure at 22 ug/kg, po treated for >30 mins followed by induction of postural hypotension measured 60 secs after postural change (reference value: 127 +/- 10 mmHg). It counts as functional. To be noted: dose 22 µg/kg, time > 31 min.
Assay [3] concerns Rattus norvegicus. Put plainly: Effect on postural hypotension in Sprague-Dawley rat assessed as change in systolic blood pressure at 22 ug/kg, po treated for >30 mins followed by induction of postural hypotension measured 10 secs after postural change (reference value: 127 +/- 12 mmHg). It counts as functional. To be noted: dose 22 µg/kg, time > 30.17 min, 0.5028 h.
The test system of assay [4] is Rattus norvegicus. Description: Effect on postural hypotension in Sprague-Dawley rat assessed as change in systolic blood pressure at 22 ug/kg, po treated for >30 mins followed by induction of postural hypotension measured immediately after postural change (reference value: 131 +/- 9 mmHg). The class given is functional. To be noted: dose 22 µg/kg, 0.5 h.
In assay [5] the test system is Rattus norvegicus. Description: Effect on postural hypotension in Sprague-Dawley rat assessed as change in systolic blood pressure at 22 ug/kg, po treated for >30 mins followed by induction of postural hypotension measured 3 secs after postural change (reference value: 124 +/- 10 mmHg). The class given is functional. The conditions noted are these: dose 22 µg/kg, time > 30.05 min, 0.5008 h.

Assay [6] deals with Rattus norvegicus. Description: Effect on postural hypotension in Sprague-Dawley rat assessed as change in systolic blood pressure at 22 ug/kg, po treated for >30 mins followed by induction of postural hypotension measured 20 secs after postural change (reference value: 129 +/- 11 mmHg). It counts as functional. The conditions noted are these: dose 22 µg/kg, time > 30.33 min, 0.5055 h.

Assay [7] deals with Rattus norvegicus. Description: Effect on postural hypotension in Sprague-Dawley rat assessed as change in systolic blood pressure at 22 ug/kg, po treated for >30 mins followed by induction of postural hypotension measured 5 secs after postural change (reference value: 126 +/- 12 mmHg). The class given is functional. The conditions noted are these: dose 22 µg/kg, time > 30.08 min, 0.5013 h.

In assay [8] the test system is Rattus norvegicus. Put plainly: Effect on serum creatinine level in 2K2C renovascular hypertensive Sprague-Dawley rat model at 20 mg/kg, po measured after 9 weeks by biochemical analysis. The class given is functional, organism-based.
In assay [9] the test system is Rattus norvegicus. Put plainly: Antihypertensive activity in 2K2C renovascular hypertensive Sprague-Dawley rat model assessed as systolic blood pressure at 20 mg/kg, po measured after 9 weeks (Rvb ~ 202 mmHg). It counts as functional.
The test system of assay [10] is Rattus norvegicus. Description: Effect on serum urea level in 2K2C renovascular hypertensive Sprague-Dawley rat model at 20 mg/kg, po measured after 9 weeks by biochemical analysis. It counts as functional, organism-based.
For assay [11], the target named is T1, 5-hydroxytryptamine receptor 2A (Homo sapiens, UniProt P28223). Put plainly: Displacement of [3H]Ketanserin from recombinant human 5-HT2A receptor extracted from CHO cell membrane at 10 nM incubated for 60 mins by radioligand binding assay relative to control. It counts as cell membranes. The conditions noted are these: filed as antagonist. In general terms: Loss of bound radioactivity is the signal in a displacement assay; it reports binding, not function.
T1 sequence (P28223 whole entry): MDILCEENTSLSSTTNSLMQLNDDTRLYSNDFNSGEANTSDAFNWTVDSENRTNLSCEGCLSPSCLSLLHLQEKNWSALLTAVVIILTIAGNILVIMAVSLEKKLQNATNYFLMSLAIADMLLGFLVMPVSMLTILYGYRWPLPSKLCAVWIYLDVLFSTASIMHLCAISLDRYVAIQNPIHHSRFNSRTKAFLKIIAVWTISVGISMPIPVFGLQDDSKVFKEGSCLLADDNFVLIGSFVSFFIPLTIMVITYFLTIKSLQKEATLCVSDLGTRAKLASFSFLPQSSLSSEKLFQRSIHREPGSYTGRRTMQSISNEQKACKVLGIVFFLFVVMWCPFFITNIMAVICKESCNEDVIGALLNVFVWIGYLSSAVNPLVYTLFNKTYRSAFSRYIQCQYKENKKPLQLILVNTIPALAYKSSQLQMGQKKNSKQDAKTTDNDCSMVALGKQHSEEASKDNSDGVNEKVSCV

The target in assay [12] is T2, Alpha-1A adrenergic receptor (Homo sapiens) (UniProt P35348).
T2 sequence (whole entry): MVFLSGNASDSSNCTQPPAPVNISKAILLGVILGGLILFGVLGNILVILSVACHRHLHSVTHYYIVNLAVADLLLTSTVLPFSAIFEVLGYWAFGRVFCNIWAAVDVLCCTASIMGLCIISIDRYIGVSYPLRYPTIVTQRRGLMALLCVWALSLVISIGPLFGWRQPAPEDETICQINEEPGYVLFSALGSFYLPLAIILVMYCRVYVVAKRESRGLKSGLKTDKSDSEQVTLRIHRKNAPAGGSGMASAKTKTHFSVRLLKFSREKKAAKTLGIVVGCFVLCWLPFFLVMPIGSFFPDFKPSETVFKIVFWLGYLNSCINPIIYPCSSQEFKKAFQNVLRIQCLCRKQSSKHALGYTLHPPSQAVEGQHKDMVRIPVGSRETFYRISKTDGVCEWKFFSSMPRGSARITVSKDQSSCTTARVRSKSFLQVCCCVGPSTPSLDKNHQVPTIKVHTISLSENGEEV
Put plainly: Displacement of [3H]prazosin from recombinant human alpha 1A adrenoceptor extracted from CHO cell membrane at 1 nM incubated for 60 mins by radioligand binding assay relative to control. It counts as cell membranes.

Assay [13] deals with T2, Alpha-1A adrenergic receptor (Homo sapiens). Put plainly: Displacement of [3H]prazosin from recombinant human alpha 1A adrenoceptor extracted from CHO cell membrane at 10 nM incubated for 60 mins by radioligand binding assay relative to control. It counts as cell membranes. To be noted: filed as antagonist.
The target is the same in assay [14]. Put plainly: Displacement of [3H]prazosin from recombinant human alpha 1A adrenoceptor extracted from CHO cell membrane at 100 nM incubated for 60 mins by radioligand binding assay relative to control. The conditions noted are these: filed as antagonist. The class given is cell membranes.
Assay [15] deals with T1, 5-hydroxytryptamine receptor 2A. Put plainly: Displacement of [3H]Ketanserin from recombinant human 5-HT2A receptor extracted from CHO cell membrane at 1 nM incubated for 60 mins by radioligand binding assay relative to control. It counts as cell membranes.
Assay [16] shares this target. Description: Displacement of [3H]Ketanserin from recombinant human 5-HT2A receptor extracted from CHO cell membrane at 100 nM incubated for 60 mins by radioligand binding assay relative to control. The class given is cell membranes. To be noted: filed as antagonist.

`COc1cc2nc(N3CCN(C(=O)c4ccco4)CC3)nc(N)c2cc1OC` [PRAZOSIN]: the Activity with Rattus norvegicus [1] came out at 74 mmHg; in the assay with Rattus norvegicus [2] it was 74 mmHg; with Rattus norvegicus [3], 75 mmHg; in the assay with Rattus norvegicus [4], 95 mmHg; with Rattus norvegicus [5], 81 mmHg; in the assay on Rattus norvegicus [6], 75 mmHg. Moreover, the Activity in the assay with Rattus norvegicus [7] is recorded as 77 mmHg.
Turning to `CCCCc1nc(Cl)c(CO)n1Cc1ccc(-c2ccccc2-c2nnn[nH]2)cc1` [LOSARTAN], the result with Rattus norvegicus [8] and in the assay on Rattus norvegicus [10] was Active. Also, the Activity in the assay on Rattus norvegicus [9] worked out at 176 mmHg.
For the compound `Fc1ccc2c(C3CCN(CCCCn4nc5ccccc5n4)CC3)noc2c1`, the inhibition in assay [11] was 82%; in assay [12] (filed as antagonist), 83.4%; in [13] it was 99.9%; in assay [14], 99.9%; in assay [15], -5.42%; in [16], 98.9%.
Consider `Fc1ccc2c(C3CCN(CCCn4cnc5ccccc54)CC3)noc2c1`, for which the inhibition in [11] stood at 76%; in assay [12] (filed as antagonist), 69.7%; in assay [13], 97.5%; in assay [14], 99.9%; in [15], 15.9%; in [16], 94.2%.
Consider `Fc1ccc2c(N3CCN(CCCCn4cnc5ccccc54)CC3)noc2c1`, for which the inhibition in [11] came to 83.1%; in [12] (filed as antagonist), 89.6%; in assay [13], 100%; in [14] it was 101%; in assay [15] it was 22.6%; in [16] it was 97%.
On to `c1ccc2c(c1)nnn2CCCN1CCN(c2nsc3ccccc23)CC1`, for which the inhibition in assay [11] came out at 89.4%; in assay [12] (filed as antagonist), 44.5%; in assay [13] it was 82.6%; in assay [14], 96.4%; in [15], 8.15%; in assay [16] it was 98.5%.
For the compound `Fc1ccc2c(C3CCN(CCCn4nnc5ccccc54)CC3)noc2c1`, the inhibition is 96.4% in assay [11]; 39.8% in assay [12]; 87.7% in assay [13]; 98.8% in assay [14]; 76.9% in [15] (filed as antagonist); 98.7% in assay [16].
On to `c1ccc2c(c1)ncn2CCCCN1CCN(c2nsc3ccccc23)CC1`, for which the inhibition turned out to be 93.4% in assay [11]; 78% in assay [12] (filed as antagonist); 98.9% in assay [13]; 99.8% in [14]; 15.4% in assay [15]; 99.6% in assay [16].
